According to patent US20190275049A1, “Combination of an EGFR T790M Inhibitor and a CDK Inhibitor for the Treatment of Non-Small Cell Lung Cancer” (PFIZER INC., priority 2016, published 2019):

What was measured:
[1] = Plasma drug levels in H1975 xenograft study (blood samples day 15)
Description: Drugs were formulated once per in vivo experiment and were dosed daily at a concentration of 10 mL/kg through oral gavage.

[2] = tested on: H1975 xenograft tumors; assay: H1975 xenograft model, tumor growth inhibition; assay type: in vivo, nude/nude (nu/nu) female mice; settings: oral, daily
Excerpt: Four- to six-week-old nude/nude (nu/nu) female mice were obtained from Charles River Laboratories (Hollister, Calif., USA) and maintained in pressurized ventilated caging at the Pfizer La Jolla animal facility. All studies were approved by Pfizer Institutional Animal Care and Use Committees. Xenograft tumors were established by subcutaneously implanting 5×10^6 H1975 cells suspended 1:1 (v/v) with reconstituted basement membrane (Matrigel, BD Biosciences) in nu/nu mice. […] Tumor dimensions were measured with vernier calipers and tumor volumes were calculated using the formula of π/6×larger diameter x (smaller diameter)^2. […] Tumor regression percentage was calculated as 100×(1−ΔT/starting tumor size).

[3] = tested on: PC9 cell line; assay: PC9 duration of response study, T75 flask format; assay type: cell-based, human; settings: method of Example 2 (PF-06747775 600 nM, palbociclib 100 nM)
[4] = tested on: HCC4006 cell line; assay: HCC4006 duration of response study, T75 flask format; assay type: cell-based, human; settings: method of Example 2 (PF-06747775 600 nM, palbociclib 100 nM)
[5] = tested on: H1975 cell line; assay: H1975 duration of response study, 96-well plate format; assay type: cell-based, human; settings: PF-06747775 600 nM, palbociclib 100 nM, single agents or combination
Excerpt: (§1) This experimental approach provides a model of DOR and a means for testing whether combination regimens can increase or extend DOR (Tricker E M, Xu C, Uddin S, et al. Combined EGFR/MEK Inhibition Prevents the Emergence of Resistance in EGFR-Mutant Lung Cancer. Cancer Discov 2015; 5(9):960-71). […] Two different assay formats were used to facilitate quantitative assessment of time to regrowth and to address reproducibility in orthogonal formats.
A 96-well plate format assay was adapted from a published report (Tricker, E., et al., “Combined EGFR/MEK Inhibition Prevents the Emergence of Resistance in EGFR-Mutant Lung Cancer,” Cancer Discovery, 2015, 960-971, vol. 5, no. 9). […] Time was monitored. […] Non-terminal reading of live cells was conducted weekly using an IncuCyte instrument (microscopy-based cell counting, Essen Bioscience, Ann Arbor, Mich., USA). At selected time points throughout the treatment duration, a terminal reading of live cells by Cell Titer Glow method (cell ATP-based counting, Promega, Madison, Wis., USA) was used to confirm cell counts over time and at the end of study. Results were plotted as percent of wells reaching a designated confluency (e.g. 50% confluent) at different time points throughout the treatment period.

[6] = tested on: Cytochrome P-450 3A4; settings: in vivo; cited from earlier work
[7] = tested on: H1975 cell line; assay: H1975 duration of response study, T75 flask format; assay type: cell-based, human; settings: for Time Elapsed: H1975, T75 flask, single agent: 100 nM palbociclib or 600 nM PF-06747775; for delay in time required to reach a specific total cell number compared to DMSO control (FIG. 1) / number of days for 5×10^5 cells to grow to 8×10^6 cells, Independent Experiment Number 1 / number of days for 5×10^5 cells to grow to 8×10^6 cells, Independent Experiment Number 2: H1975, PF-06747775 600 nM, palbociclib 100 nM, single agents or combination
Description: as §1
H1975 cells were seeded (5×10^5 cells per flask) in T75 flasks (one or two flasks per treatment condition). […] Time was monitored. When growth reached 70-90% confluence, the cells were harvested, counted, and half of the collected cells were used to seed a fresh T75 flask. Once growth reached 70-90% confluence again, this process was repeated, then repeated again and again until a constant growth rate was achieved. Results were plotted as total live cells counted over time, for example, at each harvest, the cell number counted at that harvest was added to previous cell count numbers, then plotted as total live cells at that time point.

[8] = tested on: HCC827 cell line; assay: HCC827 duration of response study, T75 flask format; assay type: cell-based, human; settings: method of Example 2 (PF-06747775 600 nM, palbociclib 100 nM)

SMILES	Plasma Average Free Drug Concentration Over the 24 hour Dosing Interval, PF-06747775 ([1]; PF-06747775 10/20 mpk alone) [nM]	anti-tumor efficacy of single agent after 10 days of dosing ([2]; PF-06747775 10 mpk, 10 days)	effect on tumor growth inhibition (TGI) (FIG. 2) ([2]; PF-06747775 single agent, 10/20 mpk (20 mpk from day 11))	PC9 Time elapsed (days) for 5×10^5 cells to grow to 8×10^6 cells [3] [days]	HCC4006 Time elapsed (days) for 5×10^5 cells to grow to 8×10^6 cells [4] [days]	number of days for 350 cells per well to grow to 50% of the wells reaching 50% confluence, Independent Experiment Number 1 [5] [days]	number of days for 350 cells per well to grow to 50% of the wells reaching 50% confluence, Independent Experiment Number 2 [5] [days]	metabolism by Cytochrome P-450 3A4 [6]	Time Elapsed [7] [days]	delay in time required to reach a specific total cell number compared to DMSO control (FIG. 1) [7]	number of days for 5×10^5 cells to grow to 8×10^6 cells, Independent Experiment Number 1 [7] [days]	number of days for 5×10^5 cells to grow to 8×10^6 cells, Independent Experiment Number 2 [7] [days]	Plasma Average Free Drug Concentration Over the 24 hour Dosing Interval, Palbociclib ([1]; Palbo 7 mpk alone) [nM]	Plasma Average Free Drug Concentration Over the 24 hour Dosing Interval, Palbociclib ([1]; Palbo 22 mpk alone) [nM]	Plasma Average Free Drug Concentration Over the 24 hour Dosing Interval, Palbociclib ([1]; Palbo 70 mpk alone) [nM]	effect on tumor growth inhibition (TGI) (FIG. 2) ([2]; palbociclib single agent, 70 mpk)	effect on tumor growth inhibition (TGI) (FIG. 2) ([2]; palbociclib single agent, lower doses (22 mpk and 7 mpk))	HCC827 (independent experiment) Number 1 (days) for 5×10^5 cells to grow to 8×10^6 cells [8] [days]	HCC827 (independent experiment) Number 2 (days) for 5×10^5 cells to grow to 8×10^6 cells [8] [days]
C=CC(=O)N[C@@H]1CN(c2nc(Nc3cn(C)nc3OC)c3ncn(C)c3n2)C[C@H]1F [PF-06747775, N-((3R,4R)-4-fluoro-1-(6-((3-methoxy-1-methyl-1H-pyrazol-4-yl)amino)-9-methyl-9H-purin-2-yl)pyrrolidin-3-yl)acrylamide]	95	less than the desired comparator level	moderate effect	73	51	16	19	metabolized in vivo by this same enzyme	21	significant delay	15	21							
CC(=O)c1c(C)c2cnc(Nc3ccc(N4CCNCC4)cn3)nc2n(C2CCCC2)c1=O [palbociclib, 6-acetyl-8-cyclopentyl-5-methyl-2-(5-piperazin-1-yl-pyridin-2-ylamino)-8H-pyrido[2,3-d]pyrimidin-7-one]				5	18	7	7		5	slight delay, if any	4	5	6	45	127	minor effect	no effect	11	11
